Test results taken from patent publication US20070099907A1 (priority 2002, published 2007).
“Also recorded” adds a separate entry of the source.

Columns and labels:
patients who had an ACS = settings: cited from earlier work
[1] = system: postischemic cardiac dysfunction; settings: cited from earlier work
[2] = system: patients with acute coronary syndromes without ST-segment elevation; assay: Safety observations in the pilot study; assay type: in vivo, human; settings: throughout the course of the study; meloxicam 15 mg/day + aspirin + heparin
Description: An open, randomized, prospective, single-blind pilot study of the use of meloxicam in ACS patients without ST-segment elevation was performed. Patients were recruited from the Centro de Salud and the Centro Modelo de Cardiologia, Tucuman, Argentina. Inclusion criteria were chest pain within the previous 24 hours associated with ST-segment depression (>0.5 mm) and either ECG evidence of ischemia or previously documented coronary artery disease. Exclusion criteria were persistent ST-segment elevation and increased levels of the MB isoenzyme of creatine kinase (CK-MB) consistent with acute myocardial infarction, revascularization procedures within the preceding 6 months, malignancy, pregnancy, renal or hepatic diseases, use of anticoagulant therapy, treatment with anti-inflammatory drugs, or contraindication of the study drugs. […] Both groups received aspirin for 30 days. The dose range was 100 to 300 mg per day at the discretion of the treating physician. CK-MB levels were measured before randomization. Additional assays were performed after an episode of chest pain to confirm the diagnosis of acute MI. All patients received subcutaneous LMWH (either nadroparin 87 IU/kg BID or enoxaparin 1 mg/kg BID) or intravenous UFH given as an initial bolus of 5000 IU followed by continuous infusion at 1000 IU per hour for 7 days or until discharge from the hospital. […]

[3] = system: patients with acute coronary syndromes without ST-segment elevation; assay: Open, randomized, single-blind pilot study of meloxicam added to aspirin and heparin: cardiovascular events; assay type: in vivo, human
Description: (§1) Patients were recruited from the Centro de Salud and the Centro Modelo de Cardiologia, Tucuman, Argentina. Inclusion criteria were chest pain within the previous 24 hours associated with ST-segment depression (>0.5 mm) and either ECG evidence of ischemia or previously documented coronary artery disease. Exclusion criteria were persistent ST-segment elevation and increased levels of the MB isoenzyme of creatine kinase (CK-MB) consistent with acute myocardial infarction, revascularization procedures within the preceding 6 months, malignancy, pregnancy, renal or hepatic diseases, use of anticoagulant therapy, treatment with anti-inflammatory drugs, or contraindication of the study drugs. […] Both groups received aspirin for 30 days. The dose range was 100 to 300 mg per day at the discretion of the treating physician. CK-MB levels were measured before randomization. Additional assays were performed after an episode of chest pain to confirm the diagnosis of acute MI. All patients received subcutaneous LMWH (either nadroparin 87 IU/kg BID or enoxaparin 1 mg/kg BID) or intravenous UFH given as an initial bolus of 5000 IU followed by continuous infusion at 1000 IU per hour for 7 days or until discharge from the hospital. The activated partial-thromboplastin time (APTT) was used to assess the degree of anticoagulation in patients receiving intravenous unfractionated heparin. Patients were tested every 12 hours on the first day and every 24 hours subsequently. The APTT was maintained in the range 45 to 87 seconds (normal value, 30±5 seconds).
[…] An additional secondary composite variable was determined: MI, death, and all revascularization procedures (percutaneous transluminal coronary angioplasty [PTCA] or coronary artery graft surgery [CABG]). Each component of the primary and secondary outcome variable was also recorded separately. […] Cardiac catheterization was performed at the discretion of treating physicians, but only urgent PTCA and CABG, usually after recurrent angina or MI, were considered as end points. Revascularization procedures were indicated after recurrence of chest pain refractory to medical treatment. During CCU stay and after discharge, all patients were examined for clinical events by an investigator who was unaware of treatment allocation. Patients were also instructed to report any events to study personnel immediately. The diagnostic criteria for MI were chest pain lasting 20 minutes or more with ECG changes and an at least 2-fold elevation of CK-MB. Recurrent angina was defined as recurrence of chest pain with ECG changes refractory to medical therapy (aspirin, heparin, nitroglycerin, and β-blockers).
Relative risks (RRs) and their 95% CI were obtained. The RR reduction (RRR) is defined as 1 minus RR and expressed as percentage. The absolute risk reduction (ARR) was calculated as the difference between the risk in control patients minus the risk in treated patients and expressed as percentage. A multiple logistic regression model was used to determine the predictive value of the variables associated with events at day 90 in the previous univariate analysis. The software used were CSS/Statistics 3.1 (StatSoft Corp) and EPI INFO 6 v.6.04, 1996.

[4] = system: activated partial-thromboplastin time (APTT); assay: Activated partial thromboplastin time after unfractionated heparin in the pilot study; assay type: in vivo, human; settings: for Activated Partial Thromboplastin Time, Mean ± SD: patients treated with unfractionated heparin; for Activated Partial Thromboplastin Time, Median: unfractionated heparin
Description: as §1
The nature of the quantitative variables distribution was assessed by the Shapiro-Wilk test. Differences between the 2 treatment groups were analyzed by the Student's t test (independent samples) or the Mann-Whitney test, according to the nature of the distribution. Differences in terms of activated partial thromboplastin time after unfractionated heparin were assessed by a 2-way ANOVA model, with repeated measures in one of the factors (Student Newman-Keuls post-hoc test). Univariate associations between qualitative variables were assessed by X^2 (Yates corrected) and Spearman rank-order correlations.

[5] = after bolus intravenous dose of 15 mg meloxicam; cited from earlier work
arthritic patients = settings: compared to patients treated with naproxen; cited from earlier work
[6] = system: endothelial COX-2 expression; settings: cited from earlier work
[7] = 90-day follow-up, cumulative, n=60 per group
[8] = 90-day follow-up, meloxicam group vs control
[9] = 90-day follow-up, meloxicam group vs control, listed as meloxicam
[10] = CCU period, meloxicam group vs control
[11] = CCU period, meloxicam group vs control, listed as meloxicam
[12] = CCU period, n=60 per group, listed as meloxicam

CC(=O)Oc1ccccc1C(=O)O [ASA, acetylsalicylic acid]
reduction of combined incidence of cardiovascular death, MI and stroke (patients who had an ACS): 25%
aggravation of postischemic cardiac dysfunction [1]: aggravates postischemic cardiac dysfunction

Cc1cnc(NC(=O)C2=C(O)c3ccccc3S(=O)(=O)N2C)s1 [Meloxicam, 4-hydroxy-2-methyl-N-(5-methyl-2-thiazolyl)-2H-1,2-benzothiazine-3-carboxamide-1,1-dioxide]
adverse complications (bleeding complications, side effects, intolerance) [2]: No adverse complications; also recorded: No bleeding complications, side effects, or intolerance
MI + death + revascularization, % (secondary composite) [3, 7]: 13.3%
MI + death + revascularization, n (secondary composite) [3, 7]: 8 n
Recurrent angina + MI + vascular death, % (primary composite) [3, 7]: 21.7%
Recurrent angina + MI + vascular death, n (primary composite) [3, 7]: 13 n
Recurrent angina, % [3, 7]: 20.0%
Recurrent angina, % ([3]; 90-day follow-up, cumulative, n=60 per group, listed as meloxicam): 20%
ARR %, MI + death + revascularization [3, 8]: 20.0%
ARR %, recurrent angina [3, 8]: 23.3%
ARR %, revascularization [3, 8]: 18.3%
RRR (95% CI), recurrent angina [3, 8]: 53.8 (17-74) %
RRR (95% CI), recurrent angina + MI + vascular death [3, 8]: 55.1 (22-74) %
RRR (95% CI), revascularization [3, 8]: 61.0 (14-82) %
RRR (95% CI), MI + death + revascularization [3, 9]: 60.1%
RRR (95% CI), recurrent angina [3, 9]: 53.8%
RRR (95% CI), recurrent angina + MI + vascular death [3, 9]: 55.1%
RRR (95% CI), revascularization [3, 9]: 61%
Revascularization, % ([3]; 90-day follow-up, n=60 per group): 11.7%
Recurrent angina, % ([3]; CCU period, meloxicam + aspirin + heparin vs control aspirin + heparin, n=60 per group): 15.0%
ARR %, MI + death + revascularization [3, 10]: 16.7%
ARR %, all revascularization [3, 10]: 15.0%
ARR %, recurrent angina [3, 10]: 20.0%
ARR %, recurrent angina + MI + vascular death [3, 10]: 23.3%
RRR (95% CI), MI + death + revascularization [3, 10]: 62.5 (11-84) %
RRR (95% CI), all revascularization [3, 10]: 60.1%
RRR (95% CI), recurrent angina [3, 10]: 57.1 (14-79) %
RRR (95% CI), recurrent angina + MI + vascular death [3, 10]: 60.8 (23-80) %
ARR %, all revascularization [3, 11]: 15%
ARR %, recurrent angina [3, 11]: 20%
RRR (95% CI), MI + death + revascularization [3, 11]: 62.5%
RRR (95% CI), all revascularization [3, 11]: 60.8%
RRR (95% CI), recurrent angina [3, 11]: 57.1%
RRR (95% CI), recurrent angina + MI + vascular death [3, 11]: 60.8%
All revascularization, % ([3]; CCU period, n=60 per group): 10.0%
MI + death + revascularization, % (secondary composite) ([3]; CCU period, n=60 per group): 10.0%
MI + death + revascularization, n (secondary composite) ([3]; CCU period, n=60 per group): 6 n
Recurrent angina + MI + vascular death, % (primary composite) ([3]; CCU period, n=60 per group): 15.0%
Recurrent angina + MI + vascular death, n (primary composite) ([3]; CCU period, n=60 per group): 9 n
MI + death + revascularization, % (secondary composite) [3, 12]: 10%
Recurrent angina + MI + vascular death, % (primary composite) [3, 12]: 15%
patients reaching the additional secondary outcome variable (MI, death, revascularization) ([3]; at 30 days): 11.7%
patients reaching the primary outcome variable (recurrent angina, MI, or death) ([3]; at 30 days): 20.0%
improvement of the ARR in recurrent angina ([3]; during the 30-day treatment period): 3.3%
decrease of the triple end points (recurrent angina, MI and vascular death or MI, death and coronary revascularization procedures) ([3]; meloxicam with aspirin and heparin, ACS without ST-segment elevation): 60%
patients reaching the primary outcome variable (recurrent angina, MI, or death) ([3]; within 48 hours of randomization): 1.7%
Activated Partial Thromboplastin Time, Mean ± SD ([4]; Day 1): 55.8 ± 26.4 s
Activated Partial Thromboplastin Time, Median ([4]; Day 1): 48 s
Activated Partial Thromboplastin Time, Mean ± SD ([4]; Day 2): 69.6 ± 19.9 s
Activated Partial Thromboplastin Time, Median ([4]; Day 2): 62 s
Activated Partial Thromboplastin Time, Mean ± SD ([4]; Day 3): 89.9 ± 24.4 s
Activated Partial Thromboplastin Time, Median ([4]; Day 3): 86 s
Activated Partial Thromboplastin Time, Mean ± SD ([4]; Day 4, control vs meloxicam P < 0.05): 89.3 ± 20.8 s
Activated Partial Thromboplastin Time, Median ([4]; Day 4): 84.5 s
Cmax [5]: 3000 ng/mL
tmax [5]: 3 min

CS(=O)(=O)c1ccc(C2=C(c3ccccc3)C(=O)OC2)cc1 [rofecoxib]
risk of heart attack (arthritic patients): five-fold higher risk of heart attack

CC(=O)Oc1cc(C(F)(F)F)ccc1C(=O)O [triflusal]
inhibitory activity against endothelial COX-2 expression [6]: very little inhibitory activity
